Reference: patent US4954504A, “N9 -cyclopentyl-substituted adenine derivatives having adenosine-2 receptor stimulating activity” (Ciba-Geigy Corporation, priority 1988, dated 1990)
Structures can show the parent of a compound that is named as a salt.

Tested on: collagen-induced platelet aggregation
Experiment: Inhibition of collagen-induced platelet aggregation in human plasma
Assay type: cell-based

IC50: ~1500 nM
SMILES: CCNC(=O)[C@H]1C[C@@H](n2cnc3c(N)nc(NCCc4ccc(CCC(=O)O)cc4)nc32)[C@H](O)[C@@H]1O (relative stereo) [Example 7a, 2-alpha,3-alphadihydroxy-4β-[2-(p-carboxyethyl-phenethylamino)-9-adenyl]-cyclopentane-1β-N-ethylcarboxamide hydrochloride]
